Results from patent US20070142392A1, “Uses of rifamycins” (ActivBiotics, Inc., priority 2005, published 2007).
Converted amounts (≈) assume the structure as drawn.

Assays:
Format in all cases: cell-based
S. aureus = test: MIC values, S. aureus (Tables 1-4)
H. flu = tested on: H. flu
E. coli = test: MIC values, E. coli (Tables 1-4)
E. faecalis = test: MIC values, E. faecalis (Tables 1-4)
S. pneumo. = test: MIC values, S. pneumo. (Tables 1-4)

Row | Compound | MIC S. aureus (S. aureus) | MIC H. flu (H. flu) | MIC E. coli (E. coli) | MIC E. faecalis (E. faecalis) | MIC S. pneumo. (S. pneumo.) | MIC F. faecalis (E. faecalis; Table 2)
1 | COC1C=COC2(C)Oc3c(C)c(O)c4c(=O)c(c5n(C)c6cc(N7CC(C)NC(C)C7)ccc6nc-5c4c3C2=O)NC(=O)C(C)=CC=CC(C)C(O)C(C)C(O)C(C)C(O)C1C (mixture of isomers) [Compound 97] | 1 µg/mL | 4 µg/mL | >8 µg/mL | >8 µg/mL | 2 µg/mL | –
2 | COC1C=COC2(C)Oc3c(C)c(O)c4c(=O)c(c5oc6cc(N7CC(C)CC(C)C7)cc(O)c6nc-5c4c3C2=O)NC(=O)C(C)=CC=CC(C)C(O)C(C)C(O)C(C)C(O)C1C (mixture of isomers) [Compound 116] | 0.008 µg/mL | 0.12 µg/mL | – | 1 µg/mL | 0.002 µg/mL | –
3 | COC1C=COC2(C)Oc3c(C)c(O)c4c(=O)c(c5oc6cc(N7CC(C)OC(C)C7)cc(O)c6nc-5c4c3C2=O)NC(=O)C(C)=CC=CC(C)C(O)C(C)C(O)C(C)C(O)C1C (mixture of isomers) [Compound 117] | 0.015 µg/mL | 0.25 µg/mL | 8 µg/mL | 0.25 µg/mL | 0.002 µg/mL | –
4 | COC1C=COC2(C)Oc3c(C)c(O)c4c(=O)c(c5oc6cc(N7CCC(F)C7)ccc6nc-5c4c3C2=O)NC(=O)C(C)=CC=CC(C)C(O)C(C)C(O)C(C)C(O)C1C (mixture of isomers) [Compound 122] | 0.03 µg/mL | 0.06 µg/mL | 4 µg/mL | 0.5 µg/mL | 0.015 µg/mL | –
5 | CCOC(=O)NC1CCN(c2cc(O)c3nc4c5c6c7c(C)c(O)c5c(=O)c(c-4oc3c2)NC(=O)/C(C)=C\C=C\[C@H](C)[C@H](O)[C@@H](C)[C@@H](O)[C@@H](C)[C@H](OC(C)=O)[C@H](C)[C@@H](OC)/C=C/O[C@@](C)(O7)C6=O)CC1 [Compound 1] | 0.008 µg/mL (≈ 0.00824 µM) | 2 µg/mL (≈ 2.06 µM) | >8 µg/mL | 2 µg/mL (≈ 2.06 µM) | 0.00025 µg/mL (≈ 0.000257 µM) | –
6 | COC1C=COC2(C)Oc3c(C)c(O)c4c(=O)c(c5oc6cc(N7CC8C(C7)C8NC(=O)OCC[Si](C)(C)C)cc(O)c6nc-5c4c3C2=O)NC(=O)C(C)=CC=CC(C)C(O)C(C)C(O)C(C)C(OC(C)=O)C1C (stereo not drawn) [Compound 2] | 1 µg/mL (≈ 0.96 µM) | >8 µg/mL | >8 µg/mL | >8 µg/mL | 0.03 µg/mL (≈ 0.0288 µM) | –
7 | CCOC(=O)NC1CCN(c2cc(O)c3nc4c5c6c7c(C)c(O)c5c(=O)c(c-4oc3c2)NC(=O)/C(C)=C\C=C\[C@H](C)[C@H](O)[C@@H](C)[C@@H](O)[C@@H](C)[C@H](O)[C@H](C)[C@@H](OC)/C=C/O[C@@](C)(O7)C6=O)CC1 [Compound 3] | 0.03 µg/mL (≈ 0.0323 µM) | 0.25 µg/mL (≈ 0.269 µM) | 4 µg/mL (≈ 4.31 µM) | 0.12 µg/mL (≈ 0.129 µM) | 0.0005 µg/mL (≈ 0.000538 µM) | –
8 | COC1C=COC2(C)Oc3c(C)c(O)c4c(=O)c(c5oc6cc(N7CC8C(N)C8C7)cc(O)c6nc-5c4c3C2=O)NC(=O)C(C)=CC=CC(C)C(O)C(C)C(O)C(C)C(OC(C)=O)C1C (stereo not drawn) [Compound 4] | 0.03 µg/mL (≈ 0.0334 µM) | 0.25 µg/mL (≈ 0.279 µM) | >8 µg/mL | 0.5 µg/mL (≈ 0.557 µM) | 0.00025 µg/mL (≈ 0.000279 µM) | –
9 | COC1C=COC2(C)Oc3c(C)c(O)c4c(=O)c(c5oc6cc(N7CC8CCCNC8C7)cc(O)c6nc-5c4c3C2=O)NC(=O)C(C)=CC=CC(C)C(O)C(C)C(O)C(C)C(OC(C)=O)C1C (stereo not drawn) [Compound 5] | 0.015 µg/mL (≈ 0.0162 µM) | 2 µg/mL (≈ 2.16 µM) | 8 µg/mL (≈ 8.65 µM) | 0.5 µg/mL (≈ 0.541 µM) | 0.00025 µg/mL (≈ 0.00027 µM) | –
10 | COC1C=COC2(C)Oc3c(C)c(O)c4c(=O)c(c5oc6cc(N7CC8CCCNC8C7)cc(O)c6nc-5c4c3C2=O)NC(=O)C(C)=CC=CC(C)C(O)C(C)C(O)C(C)C(O)C1C (stereo not drawn) [Compound 7] | 0.12 µg/mL (≈ 0.136 µM) | 4 µg/mL (≈ 4.53 µM) | >8 µg/mL | 4 µg/mL (≈ 4.53 µM) | 0.004 µg/mL (≈ 0.00453 µM) | –
11 | CO[C@H]1/C=C/O[C@@]2(C)Oc3c(C)c(O)c4c(=O)c(c5oc6cc(N7CCC(N8CCOCC8)CC7)cc(O)c6nc-5c4c3C2=O)NC(=O)/C(C)=C\C=C\[C@H](C)[C@H](O)[C@@H](C)[C@@H](O)[C@@H](C)[C@H](OC(C)=O)[C@@H]1C [Compound 9] | 0.015 µg/mL (≈ 0.0155 µM) | 2 µg/mL (≈ 2.06 µM) | 8 µg/mL (≈ 8.26 µM) | 2 µg/mL (≈ 2.06 µM) | 0.001 µg/mL (≈ 0.00103 µM) | –
12 | CO[C@H]1/C=C/O[C@@]2(C)Oc3c(C)c(O)c4c(=O)c(c5oc6cc(N7CC8CCC(C7)N8)cc(O)c6nc-5c4c3C2=O)NC(=O)/C(C)=C\C=C\[C@H](C)[C@H](O)[C@@H](C)[C@@H](O)[C@@H](C)[C@H](OC(C)=O)[C@@H]1C [Compound 10] | 0.008 µg/mL (≈ 0.00878 µM) | 2 µg/mL (≈ 2.2 µM) | >8 µg/mL | 1 µg/mL (≈ 1.1 µM) | 0.00012 µg/mL (≈ 0.000132 µM) | –
13 | CO[C@H]1/C=C/O[C@@]2(C)Oc3c(C)c(O)c4c(=O)c(c5oc6cc(N7CCC(N8CCOCC8)CC7)cc(O)c6nc-5c4c3C2=O)NC(=O)/C(C)=C\C=C\[C@H](C)[C@H](O)[C@@H](C)[C@@H](O)[C@@H](C)[C@H](O)[C@@H]1C [Compound 11] | 0.004 µg/mL (≈ 0.00431 µM) | 1 µg/mL (≈ 1.08 µM) | 4 µg/mL (≈ 4.31 µM) | 0.25 µg/mL (≈ 0.27 µM) | 0.00012 µg/mL (≈ 0.000129 µM) | –
14 | COC1C=COC2(C)Oc3c(C)c(O)c4c(=O)c(c5oc6cc(N7CC8CCCNC8C7)cc(O)c6nc-5c4c3C2=O)NC(=O)C(C)=CC=CC(C)C(O)C(C)C(O)C(C)C(OC(C)=O)C1C (stereo not drawn) [Compound 12] | 0.004 µg/mL (≈ 0.00432 µM) | 0.25 µg/mL (≈ 0.27 µM) | 8 µg/mL (≈ 8.65 µM) | 0.12 µg/mL (≈ 0.13 µM) | 0.00025 µg/mL (≈ 0.00027 µM) | –
15 | CO[C@H]1/C=C/O[C@@]2(C)Oc3c(C)c(O)c4c(=O)c(c5oc6cc(N7CCC(NC(=O)OCC(C)C)CC7)cc(O)c6nc-5c4c3C2=O)NC(=O)/C(C)=C\C=C\[C@H](C)[C@H](O)[C@@H](C)[C@@H](O)[C@@H](C)[C@H](OC(C)=O)[C@@H]1C [Compound 13] | 0.008 µg/mL (≈ 0.00801 µM) | 2 µg/mL (≈ 2 µM) | 4 µg/mL (≈ 4 µM) | 0.5 µg/mL (≈ 0.5 µM) | 0.00012 µg/mL (≈ 0.00012 µM) | –
16 | COC1C=COC2(C)Oc3c(C)c(O)c4c(=O)c(c5oc6cc(N7CC8CCCNC8C7)cc(O)c6nc-5c4c3C2=O)NC(=O)C(C)=CC=CC(C)C(O)C(C)C(O)C(C)C(O)C1C (stereo not drawn) [Compound 15] | 0.03 µg/mL (≈ 0.034 µM) | 1 µg/mL (≈ 1.13 µM) | >8 µg/mL | 0.25 µg/mL (≈ 0.283 µM) | 0.002 µg/mL (≈ 0.00226 µM) | –
17 | CO[C@H]1/C=C/O[C@@]2(C)Oc3c(C)c(O)c4c(=O)c(c5oc6cc(N7CC8CCC(C7)N8)cc(O)c6nc-5c4c3C2=O)NC(=O)/C(C)=C\C=C\[C@H](C)[C@H](O)[C@@H](C)[C@@H](O)[C@@H](C)[C@H](O)[C@@H]1C [Compound 16] | 0.015 µg/mL (≈ 0.0173 µM) | 0.25 µg/mL (≈ 0.288 µM) | 4 µg/mL (≈ 4.6 µM) | 0.12 µg/mL (≈ 0.138 µM) | 0.001 µg/mL (≈ 0.00115 µM) | –
18 | CO[C@H]1/C=C/O[C@@]2(C)Oc3c(C)c(O)c4c(=O)c(c5oc6cc(N7CCC(N(C)C)CC7)cc(O)c6nc-5c4c3C2=O)NC(=O)/C(C)=C\C=C\[C@H](C)[C@H](O)[C@@H](C)[C@@H](O)[C@@H](C)[C@H](OC(C)=O)[C@@H]1C [Compound 17] | 0.008 µg/mL (≈ 0.00863 µM) | 1 µg/mL (≈ 1.08 µM) | 8 µg/mL (≈ 8.63 µM) | 1 µg/mL (≈ 1.08 µM) | 0.00012 µg/mL (≈ 0.000129 µM) | –
19 | CO[C@H]1/C=C/O[C@@]2(C)Oc3c(C)c(O)c4c(=O)c(c5oc6cc(N7CCC(N(C)C)CC7)cc(O)c6nc-5c4c3C2=O)NC(=O)/C(C)=C\C=C\[C@H](C)[C@H](O)[C@@H](C)[C@@H](O)[C@@H](C)[C@H](O)[C@@H]1C [Compound 18] | 0.004 µg/mL (≈ 0.00452 µM) | 0.5 µg/mL (≈ 0.565 µM) | 4 µg/mL (≈ 4.52 µM) | 0.12 µg/mL (≈ 0.136 µM) | 0.00012 µg/mL (≈ 0.000136 µM) | –
20 | CCOC(=O)NC1CCN(c2ccc3nc4c5c6c7c(C)c(O)c5c(=O)c(c-4n(C)c3c2)NC(=O)/C(C)=C\C=C\[C@H](C)[C@H](O)[C@@H](C)[C@@H](O)[C@@H](C)[C@H](OC(C)=O)[C@H](C)[C@@H](OC)/C=C/O[C@@](C)(O7)C6=O)CC1 [Compound 19] | 0.004 µg/mL (≈ 0.00413 µM) | 0.25 µg/mL (≈ 0.258 µM) | 4 µg/mL (≈ 4.13 µM) | 0.06 µg/mL (≈ 0.062 µM) | 0.001 µg/mL (≈ 0.00103 µM) | –
21 | CO[C@H]1/C=C/O[C@@]2(C)Oc3c(C)c(O)c4c(=O)c(c5oc6c7c(cc(O)c6nc-5c4c3C2=O)N(Cc2ccccc2)CCN7Cc2ccccc2)NC(=O)/C(C)=C\C=C\[C@H](C)[C@H](O)[C@@H](C)[C@@H](O)[C@@H](C)[C@H](OC(C)=O)[C@@H]1C [Compound 85] | 2 µg/mL (≈ 1.93 µM) | >8 µg/mL | >8 µg/mL | – | – | 8 µg/mL (≈ 7.71 µM)
22 | CO[C@H]1/C=C/O[C@@]2(C)Oc3c(C)c(O)c4c(=O)c(c5oc6cc(N7CCN(c8ccccc8)CC7)cc(O)c6nc-5c4c3C2=O)NC(=O)/C(C)=C\C=C\[C@H](C)[C@H](O)[C@@H](C)[C@@H](O)[C@@H](C)[C@H](O)[C@@H]1C [Compound 102] | 0.004 µg/mL (≈ 0.00435 µM) | 0.25 µg/mL (≈ 0.272 µM) | 4 µg/mL (≈ 4.35 µM) | 0.06 µg/mL (≈ 0.0653 µM) | – | –
23 | CO[C@H]1/C=C/O[C@@]2(C)Oc3c(C)c(O)c4c(=O)c(c5oc6c(F)cc(F)cc6nc-5c4c3C2=O)NC(=O)/C(C)=C\C=C\[C@H](C)[C@H](O)[C@@H](C)[C@@H](O)[C@@H](C)[C@H](O)[C@@H]1C [Compound 137] | 0.12 µg/mL (≈ 0.154 µM) | 2 µg/mL (≈ 2.57 µM) | >8 µg/mL | 1 µg/mL (≈ 1.28 µM) | – | –
